In ChEMBL document CHEMBL3046246, “Synthesis of spirothiohydantoin analogues of hydantocidin” (1995) one finds inhibition of growth data, which are given here for four compounds.

SMILES strings stand for the structures.

Holding throughout (assay type): functional
Common to all, as to conditions: 240 h, read-out: GI

The test system of assay [1] is Xanthium strumarium. Description: Herbicidal activity against three-leaf stage Xanthium strumarium (cocklebur) assessed as plant growth inhibition at 1000 ppm applied through foliar spraying measured after 10 days post compound treatment relative to untreated control.
For assay [2], the system named is Panicum dichotomiflorum. In words: Herbicidal activity against three-leaf stage Panicum dichotomiflorum assessed as plant growth inhibition at 1000 ppm applied through foliar spraying measured after 10 days post compound treatment relative to untreated control.
Assay [3] deals with Setaria viridis. Description: Herbicidal activity against three-leaf stage Setaria viridis (green foxtail) assessed as plant growth inhibition at 1000 ppm applied through foliar spraying measured after 10 days post compound treatment relative to untreated control.
Assay [4] has as its system Ipomoea purpurea. In words: Herbicidal activity against 3-leaf stage tall Ipomoea purpurea (common morning-glory) assessed as plant growth inhibition at 1000 ppm applied through foliar spraying measured after 10 days post compound treatment relative to untreated control.
Assay [5] relates to Solanum nigrum. Description: Herbicidal activity against three-leaf stage Solanum nigrum (black nightshade) assessed as plant growth inhibition at 1000 ppm applied through foliar spraying measured after 10 days post compound treatment relative to untreated control.
Assay [6] deals with Digitaria sanguinalis. Description: Herbicidal activity against three-leaf stage Digitaria sanguinalis (hairy crabgrass) assessed as plant growth inhibition at 1000 ppm applied through foliar spraying measured after 10 days post compound treatment relative to untreated control.
In assay [7] the test system is Echinochloa crus-galli. In words: Herbicidal activity against three-leaf stage Echinochloa crus-galli (barnyard grass) assessed as plant growth inhibition at 1000 ppm applied through foliar spraying measured after 10 days post compound treatment relative to untreated control.
Assay [8] concerns Abutilon theophrasti. In words: Herbicidal activity against three-leaf stage Abutilon theophrasti (velvetleaf) assessed as plant growth inhibition at 1000 ppm applied through foliar spraying measured after 10 days post compound treatment relative to untreated control.
The subject of assay [9] is Sorghum halepense. In words: Herbicidal activity against three-leaf stage Sorghum halepense (Johnson grass) assessed as plant growth inhibition at 1000 ppm applied through foliar spraying measured after 10 days post compound treatment relative to untreated control.
Assay [10] concerns Ambrosia artemisiifolia. In words: Herbicidal activity against three-leaf stage Ambrosia artemisiifolia (ragweed) assessed as plant growth inhibition at 1000 ppm applied through foliar spraying measured after 10 days post compound treatment relative to untreated control.

With `O=C1NC(=O)[C@@]2(N1)O[C@H](CO)[C@@H](O)[C@H]2O` [HYDANTOCIDIN], the inhibition of growth at 1000 ppm in assay [1], in assay [2], in [3], in [4], in assay [5] and in assay [6] was 95% in each case. The inhibition of growth at 1000 ppm in assay [7], in [8], in assay [9] and in assay [10] was 95% in each case.

In the case of `O=C1NC(=S)N[C@]12O[C@H](CO)[C@@H](O)[C@H]2O`, the inhibition of growth at 1000 ppm was found to be 95% in assay [1]; 80% in [2]; 95% in assay [3]; 80% in assay [4]; 80% in assay [5]; 95% in assay [6]. Also, the inhibition of growth at 1000 ppm in assay [7] was 95%; in assay [8], 80%; in assay [9], 95%; in assay [10], 80%.

On to `O=C1NC(=S)N[C@@]12O[C@H](CO)[C@@H](O)[C@H]2O`, for which the inhibition of growth at 1000 ppm in assay [1] turned out to be 95%; in assay [2], 80%; in [3] it was 95%; in assay [4], 95%; in [5] it was 95%; in [6], 95%. Besides, the inhibition of growth at 1000 ppm in [7], in [8], in assay [9] and in assay [10] was 95% in each case.

As to `O=C1NC(=O)[C@]2(N1)O[C@H](CO)[C@@H](O)[C@H]2O` [HYDANTOCIDIN], the inhibition of growth at 1000 ppm in [1] came out at 80%; in assay [2], 80%; in [3] it was 80%; in [4] it was 30%; in assay [5], 50%; in assay [6], 80%. The inhibition of growth at 1000 ppm in assay [7] stood at 10%; in assay [8], 80%; in assay [9], 0%.
